This is an account of results in US11124500B2, “Disubstituted pyrazole compounds” (Eli Lilly and Company, priority 2019, dated 2021).

Each structure is given as a SMILES string.

One test addresses human KHK-C (Homo sapiens (Human), UniProt P50053). Description: KHK enzyme activity assay, human KHK-C (F1P production, RapidFire MS). Format: biochemical. The following applies: fructose 250 μM, ATP 150 μM; average ± SEM; read-out: hKHK-C IC50. As for the experimental part:
(§1) KHK Enzyme Activity Assay for Human KHK-C and Human KHK-A
(§2) The intrinsic potency for inhibition of KHK C or A activity may be measured using an enzymatic assay which measures the production of FIP. Compounds are prepared in DMSO and tested in a 10-point concentration curve, to create 3-fold serial dilutions of the compounds in a 96-well plate ranging from 20 μM to 1.02 nM. Enzyme is prepared in assay buffer [50 mM 4-(2-hydroxyethyl)piperazine-1-ethanesulfonic acid (HEPES), 10 mM potassium chloride, 100 mM magnesium chloride, 2 mM tris(2-carboxyethyl)phosphine (TCEP), 0.01% n-octyl glucoside] and incubated with compounds at RT for 15 min. The reaction is carried out in 100 μL volumes containing substrate concentrations of fructose (250 μM for KHK-C assay and 1.25 mM for KHK-A assay) and ATP (150 μM for both isoforms); which are further incubated at RT for 20 min. The reaction is then halted by the addition of stop buffer; consisting of 0.2% formic acid and 1 μg/ml ^13C6-fructose-6-phosphate (^13C6-F6P) internal standard. Plates are stored in −20° C. until RapidFire MS analysis.
(§3) RapidFire MS Analysis for Quantitation of F1P
(§4) An Agilent 300 RapidFire automated extraction system (Agilent, Santa Clara, Calif.) with three HPLC quaternary pumps is coupled to an Agilent 6495 triple quadrupole mass spectrometer (Agilent Technologies, Santa Clara, Calif.) equipped with an electrospray ionization (ESI) interface source. The RapidFire Mass Spec system is equipped with a reusable RapidFire C18 (type C) solid-phase extraction (SPE) cartridge (G9205 Å).
(§5) Solvent A, used for sample loading and washing, is 6 mM octylamine (Acros Organics 129495000) brought to pH 5.0 using acetic acid. Solvent B, used for sample elution, is 20% water in ACN containing 0.1% formic acid. Samples are sequentially analyzed by aspirating 10 μL onto the collection loop under vacuum directly from multiwell plates. The 10 μL of sample is loaded onto the C18 cartridge and washed using solvent A at a flow rate of 1.25 mL/min for 5000 ms. The retained analytes are then eluted to the mass spectrometer using solvent B at a flow rate of 1.25 mL/min for 5000 ms. The system is re-equilibrated using solvent at flow rate of 1.25 mL/min for 2000 ms.
(§6) The triple quadrupole mass spectrometer is equipped with an ESI source and analytes are monitored using selected reaction monitoring (SRM) in negative mode [M−H]−. F1P is monitored at m/z 259.02/96.9 and ^13C6-fructose-6-phosphate is monitored at m/z 264.99/97. The area ratio values for F1P is calculated using ^13C6-fructose-6-phospate as internal standard.

The next test has as its target human KHK-A (Homo sapiens (Human), UniProt P50053). Nature of the test: KHK enzyme activity assay, human KHK-A (F1P production, RapidFire MS). Format: biochemical. The following applies: fructose 1.25 mM, ATP 150 μM; average ± SEM; read-out: hKHK-A IC50. As for the experimental part: as §1, §2, §3, §4, §5, §6

human KHK-C, sequence (P50053 whole entry): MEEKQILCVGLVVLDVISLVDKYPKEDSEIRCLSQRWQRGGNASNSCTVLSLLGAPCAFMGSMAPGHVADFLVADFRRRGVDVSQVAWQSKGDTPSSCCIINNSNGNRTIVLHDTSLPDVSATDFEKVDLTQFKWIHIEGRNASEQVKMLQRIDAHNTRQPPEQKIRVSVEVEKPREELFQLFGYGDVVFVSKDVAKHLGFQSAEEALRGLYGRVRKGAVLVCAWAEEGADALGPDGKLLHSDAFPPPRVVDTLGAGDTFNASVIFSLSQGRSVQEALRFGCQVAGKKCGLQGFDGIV
human KHK-A, sequence (P50053 other isoform, or with tags, fused parts or gaps): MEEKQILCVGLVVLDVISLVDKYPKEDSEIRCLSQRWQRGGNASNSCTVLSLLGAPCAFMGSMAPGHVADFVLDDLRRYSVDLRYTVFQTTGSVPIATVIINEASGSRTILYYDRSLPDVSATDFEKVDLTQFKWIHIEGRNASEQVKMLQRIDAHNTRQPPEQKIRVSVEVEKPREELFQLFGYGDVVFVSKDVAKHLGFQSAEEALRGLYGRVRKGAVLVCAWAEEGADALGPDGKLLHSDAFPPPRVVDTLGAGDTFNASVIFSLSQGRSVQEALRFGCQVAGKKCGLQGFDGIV

The IC50 is the midpoint of a concentration-inhibition curve. For the molecule `C[C@H]1CCN1c1nc(-c2cnn(CC(O)CO)c2)cc(C(F)(F)F)c1C#N` (single isomer, unassigned; isomer 1) [Example 24a], the results for the IC50 on human KHK-C and on human KHK-A were 6.06 nM and 9.99 nM, respectively.
With `C[C@H]1CCN1c1nc(-c2cnn(CC(O)CO)c2)cc(C(F)(F)F)c1C#N` (single isomer, unassigned; isomer 2) [Example 24b], the IC50 came to 4.89 nM at human KHK-C and 6.75 nM on human KHK-A.
The matching figures for `OC[C@H]1CCN1c1nc(-c2cnn(C3CNC3)c2)cc(C(F)(F)F)n1` [Example 3, [(2R)-1-[4-[1-(Azetidin-3-yl)pyrazol-4-yl]-6-(trifluoromethyl)pyrimidin-2-yl]azetidin-2-yl]methanol]: 41.9 ± 6.77 nM and 45.4 ± 29.5 nM.
On the same counts, the results for `C[C@H]1[C@H](O)CN1c1nc(-c2cnn(C3CNC3)c2)cc(C(F)(F)F)n1` [Example 4, (2S,3R)-1-[4-[1-(Azetidin-3-yl)pyrazol-4-yl]-6-(trifluoromethyl)pyrimidin-2-yl]-2-methyl-azetidin-3-ol] are 14.4 ± 1.12 nM and 11.4 ± 4.34 nM.
On the same counts, the results for `C[C@H]1CCN1c1nc(-c2cnn(CC(=O)NCCO)c2)cc(C(F)(F)F)c1C#N` [Example 5, 2-[4-[5-Cyano-6-[(2S)-2-methylazetidin-1-yl]-4-(trifluoromethyl)-2-pyridyl]pyrazol-1-yl]-N-(2-hydroxyethyl)acetamide] are 57 ± 32.6 nM and 37.7 ± 19.9 nM.
With `N#Cc1c(C(F)(F)F)cc(-c2cnn(C3CCNCC3)c2)nc1N1CC[C@@H]1CO` [Example 6, 2-[(2R)-2-(Hydroxymethyl)azetidin-1-yl]-6-[1-(4-piperidyl)pyrazol-4-yl]-4-(trifluoromethyl)pyridine-3-carbonitrile], the IC50 was found to be 25.7 ± 5.14 nM on human KHK-C and 15.4 ± 5.05 nM on human KHK-A.
For `C[C@H]1[C@H](O)CN1c1nc(-c2cnn(C3CCNCC3)c2)cc(C(F)(F)F)c1C#N` [Example 7, 2-[(2S,3R)-3-Hydroxy-2-methyl-azetidin-1-yl]-6-[1-(4-piperidyl)pyrazol-4-yl]-4-(trifluoromethyl)pyridine-3-carbonitrile], the IC50 at human KHK-C was 18.1 ± 4.85 nM; at human KHK-A, 6.02 ± 2.27 nM.
The matching figures for `C[C@H]1CCN1c1nc(-c2cnn(C3CCN(C)CC3)c2)cc(C(F)(F)F)c1C#N` [Example 8, 2-[(2S)-2-Methylazetidin-1-yl]-6-[1-(1-methyl-4-piperidyl)pyrazol-4-yl]-4-(trifluoromethyl)pyridine-3-carbonitrile]: 56.1 ± 62.5 nM and 25.2 ± 15.7 nM.
On the same counts, the results for `C[C@H]1CCN1c1nc(-c2cnn(C3CCN(CCO)CC3)c2)cc(C(F)(F)F)c1C#N` [Example 9, 6-[1-[1-(2-Hydroxyethyl)-4-piperidyl]pyrazol-4-yl]-2-[(2S)-2-methylazetidin-1-yl]-4-(trifluoromethyl)pyridine-3-carbonitrile] are 6.26 nM and 3.58 nM.
The matching figures for `C[C@H]1CCN1c1nc(-c2cnn(CCN(C)C)c2)cc(C(F)(F)F)c1C#N` [Example 10, 6-[1-[2-(Dimethylamino)ethyl]pyrazol-4-yl]-2-[(2S)-2-methylazetidin-1-yl]-4-(trifluoromethyl)pyridine-3-carbonitrile]: 418 ± 503 nM and 246 ± 248 nM.
Regarding `C[C@H]1CCN1c1nc(-c2cnn(CCO)c2)cc(C(F)(F)F)c1C#N` [Example 11, 6-[1-(2-Hydroxyethyl)pyrazol-4-yl]-2-[(2S)-2-methylazetidin-1-yl]-4-(trifluoromethyl)pyridine-3-carbonitrile], the values for the IC50 on human KHK-C and at human KHK-A were 8.03 nM and 5.23 nM, respectively.
The matching figures for `C[C@H]1CCN1c1nc(-c2cnn(C3CCNCC3)c2)cc(C(F)(F)F)c1C#N` [Example 12, 2-[(2S)-2-Methylazetidin-1-yl]-6-[1-(4-piperidyl)pyrazol-4-yl]-4-(trifluoromethyl)pyridine-3-carbonitrile]: 3.87 ± 0.391 nM and 3.65 ± 0.817 nM.
On the same counts, the results for `C[C@H]1CCN1c1nc(-c2cnn(C3CCNCC3)c2)cc(C(F)(F)F)n1` [Example 13, 2-[(2S)-2-Methylazetidin-1-yl]-4-[1-(4-piperidyl)pyrazol-4-yl]-6-(trifluoromethyl)pyrimidine] are 15.5 ± 20.4 nM and 7.69 ± 7.97 nM.
On the same counts, the results for `C[C@H]1[C@H](O)CN1c1nc(-c2cnn([C@@H]3CCNC3)c2)cc(C(F)(F)F)n1` [Example 14, (2S,3R)-2-Methyl-1-[4-[1-[(3R)-pyrrolidin-3-yl]pyrazol-4-yl]-6-(trifluoromethyl)pyrimidin-2-yl]azetidin-3-ol] are 15.9 ± 4.37 nM and 19.1 ± 2.98 nM.
Turning to `C[C@H]1[C@H](O)CN1c1nc(-c2cnn([C@H]3CCNC3)c2)cc(C(F)(F)F)n1` [Example 15, (2S,3R)-2-Methyl-1-[4-[1-[(3S)-pyrrolidin-3-yl]pyrazol-4-yl]-6-(trifluoromethyl)pyrimidin-2-yl]azetidin-3-ol], the IC50 at human KHK-C turned out to be 27.2 ± 8.6 nM; on human KHK-A, 26.7 ± 3.66 nM.
The matching figures for `OC[C@H]1CCN1c1nc(-c2cnn([C@@H]3CCNC3)c2)cc(C(F)(F)F)n1` [Example 16, [(2R)-1-[4-[1-[(3R)-Pyrrolidin-3-yl]pyrazol-4-yl]-6-(trifluoromethyl)pyrimidin-2-yl]azetidin-2-yl]methanol]: 28 ± 17.3 nM and 30 ± 5.09 nM.
On the same counts, the results for `C[C@H]1CCN1c1nc(-c2cnn(C3CNC3)c2)cc(C(F)(F)F)c1C#N` [Example 17, 6-[1-(Azetidin-3-yl)pyrazol-4-yl]-2-[(2S)-2-methylazetidin-1-yl]-4-(trifluoromethyl)pyridine-3-carbonitrile] are 16.1 ± 7.96 nM and 13.2 ± 12.7 nM.
As to `C[C@H]1CCN1c1nc(-c2cnn(C3CCN(C(=O)CN)CC3)c2)cc(C(F)(F)F)c1C#N` [Example 18, 6-[1-[1-(2-Aminoacetyl)-4-piperidyl]pyrazol-4-yl]-2-[(2S)-2-methylazetidin-1-yl]-4-(trifluoromethyl)pyridine-3-carbonitrile], the values for the IC50 on human KHK-C and on human KHK-A were 59.2 ± 67.8 nM and 35.6 ± 32.4 nM, respectively.
On the same counts, the results for `CC(=O)N1CCC(n2cc(-c3cc(C(F)(F)F)c(C#N)c(N4CC[C@@H]4C)n3)cn2)CC1` [Example 19, 6-[1-(1-Acetyl-4-piperidyl)pyrazol-4-yl]-2-[(2S)-2-methylazetidin-1-yl]-4-(trifluoromethyl)pyridine-3-carbonitrile] are 54.3 nM and 29.2 nM.
On the same counts, the results for `C[C@H]1CCN1c1nc(-c2cnn(CC(=O)N3CCN(C)CC3)c2)cc(C(F)(F)F)c1C#N` [Example 20, 2-[(2S)-2-Methylazetidin-1-yl]-6-[1-[2-(4-methylpiperazin-1-yl)-2-oxo-ethyl]pyrazol-4-yl]-4-(trifluoromethyl)pyridine-3-carbonitrile] are 150 ± 243 nM and 81.8 ± 92.6 nM.
Regarding `C[C@H]1CCN1c1nc(-c2cnn(CC(=O)N(CCO)CCO)c2)cc(C(F)(F)F)c1C#N` [Example 21, 2-[4-[5-Cyano-6-[(2S)-2-methylazetidin-1-yl]-4-(trifluoromethyl)-2-pyridyl]pyrazol-1-yl]-N,N-bis(2-hydroxyethyl)acetamide], the figures for the IC50 at human KHK-C and at human KHK-A were 55.2 ± 28.1 nM and 39.2 ± 13.6 nM, respectively.
The matching figures for `C[C@H]1CCN1c1nc(-c2cnn(CC(=O)N3C[C@@H](O)[C@H](O)C3)c2)cc(C(F)(F)F)c1C#N` [Example 22, 6-[1-[2-[(3R,4R)-3,4-Dihydroxypyrrolidin-1-yl]-2-oxo-ethyl]pyrazol-4-yl]-2-[(2S)-2-methylazetidin-1-yl]-4-(trifluoromethyl)pyridine-3-carbonitrile]: 61.3 ± 57.5 nM and 33.7 ± 17.8 nM.
Turning to `C[C@H]1CCN1c1nc(-c2cnn(CC(=O)N3C[C@H](O)[C@@H](O)C3)c2)cc(C(F)(F)F)c1C#N` [Example 23, 6-[1-[2-[(3S,4S)-3,4-Dihydroxypyrrolidin-1-yl]-2-oxo-ethyl]pyrazol-4-yl]-2-[(2S)-2-methylazetidin-1-yl]-4-(trifluoromethyl)pyridine-3-carbonitrile], the IC50 was determined as 41.6 ± 47.1 nM at human KHK-C and 24.9 ± 15.3 nM at human KHK-A.
